Measured values taken from ChEMBL document CHEMBL1130513, “New hepatoprotective saponins, bupleurosides III, VI, IX, and XIII, from Chinese Bupleuri Radix: Structure-requirements for the cytoprotective activity in primary cultured rat hepatocytes” (1997).

Tests used:
Assay type in all cases: functional
Settings in all cases: Hepatocyte
Rattus norvegicus [1] = organism: Rattus norvegicus; test: In vitro inhibitory effect on D-Galactosamine induced cytotoxicity in primary cultured rat hepatocytes at 0.3 ug/mL
Rattus norvegicus [2] = organism: Rattus norvegicus; test: In vitro inhibitory effect on D-Galactosamine induced cytotoxicity in primary cultured rat hepatocytes at 1 ug/mL
Rattus norvegicus [3] = organism: Rattus norvegicus; test: In vitro inhibitory effect on D-Galactosamine induced cytotoxicity in primary cultured rat hepatocytes at 10 ug/mL
Rattus norvegicus [4] = organism: Rattus norvegicus; test: In vitro inhibitory effect on D-Galactosamine induced cytotoxicity in primary cultured rat hepatocytes at 3 ug/mL
Rattus norvegicus [5] = organism: Rattus norvegicus; test: In vitro inhibitory effect on D-Galactosamine induced cytotoxicity in primary cultured rat hepatocytes at 30 ug/mL

SMILES | inhibition at 0.3 µg/mL (Rattus norvegicus [1]) | inhibition at 1 µg/mL (Rattus norvegicus [2]) | inhibition at 10 µg/mL (Rattus norvegicus [3]) | inhibition at 3 µg/mL (Rattus norvegicus [4]) | inhibition at 30 µg/mL (Rattus norvegicus [5])
C[C@H]1O[C@@H](OC2CC[C@@]3(C)C(CC[C@]4(C)C3C=CC3=C5C[C@](C)(C(=O)O)CC[C@]5(CO)[C@H](O)C[C@]34C)[C@]2(C)CO)[C@H](O)[C@@H](O[C@@H]2O[C@H](CO)[C@@H](O)[C@H](O)[C@H]2O)[C@H]1O (stereo not given in full) [BUPLEUROSIDE V] | 1.4% | 1.5% | 3.8% | 1.4% | 4.5%
C[C@H]1O[C@@H](O[C@H]2CC[C@@]3(C)C(CC[C@]4(C)C3C=C[C@]35OC[C@@]6(CCC(C)(C)CC63)[C@H](O)C[C@]54C)[C@]2(C)CO)[C@H](O)[C@@H](O[C@@H]2O[C@H](CO)[C@@H](O)[C@H](O)[C@H]2O)[C@H]1O (stereo not given in full) | 3.9% | 2.3% | -4.3% | -4.2% | -5.3%
CO[C@@H]1C=C2C3CC(C)(C)CC[C@]3(CO)[C@@H](O)C[C@@]2(C)[C@]2(C)CCC3[C@](C)(CCC(O[C@@H]4O[C@H](CO[C@@H]5O[C@H](CO)[C@@H](O)[C@H](O)[C@H]5O)[C@H](O[C@@H]5O[C@@H](C)[C@H](O)[C@@H](O)[C@H]5O)[C@H](O)[C@H]4O)[C@@]3(C)CO)C12 (stereo not given in full) | 1.5% | 1.2% | 2.9% | 3.5% | 4.8%
C[C@H]1O[C@@H](O[C@H]2CC[C@@]3(C)C(CC[C@]4(C)C3C=C[C@]35OC[C@@]6(CCC(C)(C)CC63)[C@@H](O)C[C@]54C)[C@]2(C)CO)[C@H](O)[C@@H](O[C@@H]2O[C@H](CO)[C@@H](O)[C@H](O)[C@H]2O[C@@H]2O[C@H](CO)[C@@H](O)[C@H](O)[C@H]2O)[C@H]1O (stereo not given in full) [BUPLEUROSIDE I] | -5.4% | -6.5% | -7.8% | -7.8% | -12.2%
C[C@@H]1O[C@@H](O[C@@H]2[C@H](O)[C@@H](O)[C@H](OC3CC[C@@]4(C)C(CC[C@]5(C)[C@@H]4CC=C4C6CC(C)(C)CC[C@]6(CO)[C@@H](O)C[C@]45C)C3(C)C)O[C@@H]2CO[C@@H]2O[C@H](CO)[C@@H](O)[C@H](O)[C@H]2O)[C@H](O)[C@H](O)[C@H]1O (stereo not given in full) | 3.1% | 0.2% | -2.9% | -2.9% | -0.7%
CO[C@@H]1C=C2C3CC(C)(C)CC[C@]3(CO)[C@@H](O)C[C@@]2(C)[C@]2(C)CCC3C(C)(C)[C@@H](O[C@@H]4O[C@H](C)[C@H](O)[C@H](O[C@@H]5O[C@H](CO)[C@@H](O)[C@H](O)[C@H]5O)[C@H]4O)CC[C@]3(C)C12 (stereo not given in full) | 37.2% | 64.9% | 73.3% | 75.5% | 75%
C[C@@H]1O[C@@H](O[C@@H]2[C@H](O)[C@@H](O)[C@H](OC3CC[C@@]4(C)C(CC[C@]5(C)[C@@H]4[C@H](O)C=C4C6CC(C)(C)CC[C@]6(CO)[C@@H](O)C[C@]45C)C3(C)C)O[C@@H]2CO[C@@H]2O[C@H](CO)[C@@H](O)[C@H](O)[C@H]2O)[C@H](O)[C@H](O)[C@H]1O (stereo not given in full) | -2.3% | -5.1% | -3.2% | -3.4% | -6.5%
CC1(C)CC[C@]2(C(=O)O)CC[C@]3(C)C(=CCC4[C@@]5(C)CC[C@H](O[C@@H]6O[C@H](CO)[C@H](O)[C@H](O[C@@H]7OC[C@@H](O)[C@@H](O)[C@@H]7O[C@@H]7O[C@H](CO)[C@@H](O)[C@H](O)[C@H]7O)[C@H]6O)C(C)(C)C5CC[C@]43C)C2C1 (stereo not given in full) [BUPLEUROSIDE VII1] | 1.5% | 0.1% | -1.4% | -0.9% | -1.4%
CC1(C)CC[C@@]2(CO)C(C1)C1=CC(=O)C3[C@@]4(C)CC[C@H](O)[C@@](C)(CO)C4CC[C@@]3(C)[C@]1(C)C[C@@H]2O (stereo not given in full) | 0.6% | 0.6% | 0.4% | 0% | 4.9%
C[C@H]1O[C@@H](OC2CC[C@@]3(C)C(CC[C@]4(C)C3C=C[C@]35OC[C@@]6(CCC(C)(C)CC63)[C@@H](O)C[C@]54C)C2(C)C)[C@H](O)[C@@H](O[C@@H]2O[C@H](CO)[C@@H](O)[C@H](O)[C@H]2O)[C@H]1O (stereo not given in full) | -12% | -17.1% | -29.2% | -26.9% | -30.6%
C[C@@H]1O[C@@H](O[C@H]2[C@@H](O)[C@@H](CO[C@@H]3O[C@H](CO)[C@@H](O)[C@H](O)[C@H]3O)O[C@@H](OC3CC[C@@]4(C)C(CC[C@]5(C)C4C=CC4=C6CC(C)(C)CC[C@]6(CO)[C@H](O)C[C@]45C)[C@]3(C)CO)[C@@H]2O)[C@H](O)[C@H](O)[C@H]1O (stereo not given in full) [BUPLEUROSIDE X] | 2.9% | 3.9% | 3.4% | 4.6% | 2.7%
C[C@@H]1O[C@@H](O[C@H]2[C@@H](O)[C@@H](CO[C@@H]3O[C@H](CO)[C@@H](O)[C@H](O)[C@H]3O)O[C@@H](OC3CC[C@@]4(C)C(CC[C@]5(C)C4C=CC4=C6C[C@@](C)(CO)CC[C@]6(CO)[C@H](O)C[C@]45C)[C@]3(C)CO)[C@@H]2O)[C@H](O)[C@H](O)[C@H]1O (stereo not given in full) [BUPLEUROSIDE XII] | 0.1% | 0.3% | 2% | -0.8% | 0.8%
CO[C@@H]1C=C2C3CC(C)(C)CC[C@]3(CO)[C@@H](O)C[C@@]2(C)[C@]2(C)CCC3C(C)(C)C(O[C@@H]4O[C@H](CO[C@@H]5O[C@H](CO)[C@@H](O)[C@H](O)[C@H]5O)[C@H](O[C@@H]5O[C@@H](C)[C@H](O)[C@@H](O)[C@H]5O)[C@H](O)[C@H]4O)CC[C@]3(C)[C@@H]12 (stereo not given in full) | 10.3% | 9.7% | 11.1% | 4.5% | 8.1%
C[C@@H]1O[C@@H](O[C@@H]2[C@H](O)[C@@H](O)[C@H](O[C@H]3CC[C@@]4(C)C(CC[C@]5(C)C4CC=C4C6CC(C)(C)CC[C@]6(CO)CC[C@]45C)C3(C)C)O[C@@H]2CO[C@@H]2O[C@H](CO)[C@@H](O)[C@H](O)[C@H]2O)[C@H](O)[C@H](O)[C@H]1O (stereo not given in full) [BUPLEUROSIDE XI] | -0.4% | 1.6% | 0.3% | -1% | -0.3%
C[C@H]1O[C@@H](O[C@H]2CC[C@@]3(C)C(CC[C@]4(C)C3C=C[C@]35OC[C@@]6(CCC(C)(C)CC63)[C@@H](O)C[C@]54C)[C@]2(C)CO)[C@H](O)[C@@H](O[C@@H]2O[C@H](CO)[C@@H](O)[C@H](O)[C@H]2O)[C@H]1O (stereo not given in full) | -3.6% | -7.1% | -12.7% | -11.6% | -14.8%
C[C@H]1O[C@@H](OC2CC[C@@]3(C)C(CC[C@]4(C)C3C=CC3=C5CC(C)(C)CC[C@]5(CO)[C@H](O)C[C@]34C)[C@]2(C)CO)[C@H](O)[C@@H](O[C@@H]2O[C@H](CO)[C@@H](O)[C@H](O)[C@H]2O)[C@H]1O (stereo not given in full) | 2.7% | 6.1% | 5.5% | 5.3% | 8.4%
